Experimental data as given in patent US8933224B2, “Triazine derivatives” (Pfizer Inc., priority 2013, dated 2015).

Experiments:
rat PDE10 enzyme = rat PDE10 enzyme (Rattus norvegicus (Rat), UniProt Q9QYJ6); assay: PDE10 scintillation proximity assay (SPA), inhibition of rat PDE10 enzyme activity; format: biochemical; settings: geometric mean of 2-4 determinations unless otherwise indicated (b: ≧5 determinations; c: single determination)
In short: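 SPA with fixed recombinant PDE10 (Sf21-expressed, Ni-NTA and Mono Q purified) converting ~20% of 20 nM ³H-cAMP in 50 mM TRIS pH 7.5, 1.3 mM MgCl2, 0.01% Brij, across an inhibitor range.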

[1] = biological target: human recombinant PDE10 enzyme (PDE10A) (Homo sapiens, UniProt Q9Y233); assay: PDE10 scintillation proximity assay (SPA), inhibition of human recombinant PDE10 enzyme activity; format: biochemical; settings: geometric mean of 2-4 determinations unless otherwise indicated (b: ≧5 determinations; c: single determination)
Experimental: PDE10 activity was measured using a scintillation assay (SPA-based method) similar to that previously described by Seeger, T. F. et al., Brain Research 985 (2003) 113-126. The compounds' relative activity as PDE10 inhibitors was investigated by assaying a fixed amount of enzyme in the presence of the test compound and low substrate concentration (cAMP) such that an IC50 could be determined. […] The assay is performed in a 384-well format with 50 μL assay buffer (50 mM TRIS pH 7.5; 1.3 mM MgCl2; 0.01% Brij) containing enough PDE10 to convert ˜20% of 20 nM ^3H-cAMP, and a range of inhibitors. Reactions are incubated for 30 minutes at 25° C. The addition of 20 μL of 8 mg/ml yttrium silicate SPA beads (PerkinElmer) stops the reaction. The plates are sealed (TopSeal, PerkinElmer) and the beads are allowed to settle for 8 hrs, after which they are read on the Trilux Microbeta overnight. ^1Rat enzyme preparation:^2Human enzyme preparation:
Human PDE10A coding sequence (amino acids 21 to 797 from the sequence with accession number NP_001124162.1) was synthesized using codon optimization for insect expression and cloned into the baculovirus expression vector pFastBac (Invitrogen) engineered to include a N-terminal His6 affinity tag to aid in purification as described in Seeger, T. F. et al., Brain Research 985 (2003) 113-126. The recombinant Bacmid was isolated and used to transfect sf9 insect cells to generate a viral stock. To generate cell paste for purification, sf21 cells were infected with the virus stock and cells were harvested 72 hours after infection as described in Seeger, T. F. et al., Brain Research 985 (2003) 113-126. Insect cell paste was lysed and after centrifugation, the supernatant was chromatographed on Ni-NTA agarose (Qiagen) as described in Seeger, T. F. et al., Brain Research 985 (2003) 113-126. Ni-NTA agarose eluting fractions containing PDE10A were chromatographed on Superdex 200 (GE Healthcare Life Sciences) in 50 mM Tris HCl pH 7.5, 150 mM NaCl, 1 mM EDTA, 10% glycerol, 2 mM TCEP, 1.5 mM benzamidine, EDTA-free protease inhibitors (Roche), and 5 μM E-64.

Chain of rat PDE10 enzyme (Q9QYJ6 24-794): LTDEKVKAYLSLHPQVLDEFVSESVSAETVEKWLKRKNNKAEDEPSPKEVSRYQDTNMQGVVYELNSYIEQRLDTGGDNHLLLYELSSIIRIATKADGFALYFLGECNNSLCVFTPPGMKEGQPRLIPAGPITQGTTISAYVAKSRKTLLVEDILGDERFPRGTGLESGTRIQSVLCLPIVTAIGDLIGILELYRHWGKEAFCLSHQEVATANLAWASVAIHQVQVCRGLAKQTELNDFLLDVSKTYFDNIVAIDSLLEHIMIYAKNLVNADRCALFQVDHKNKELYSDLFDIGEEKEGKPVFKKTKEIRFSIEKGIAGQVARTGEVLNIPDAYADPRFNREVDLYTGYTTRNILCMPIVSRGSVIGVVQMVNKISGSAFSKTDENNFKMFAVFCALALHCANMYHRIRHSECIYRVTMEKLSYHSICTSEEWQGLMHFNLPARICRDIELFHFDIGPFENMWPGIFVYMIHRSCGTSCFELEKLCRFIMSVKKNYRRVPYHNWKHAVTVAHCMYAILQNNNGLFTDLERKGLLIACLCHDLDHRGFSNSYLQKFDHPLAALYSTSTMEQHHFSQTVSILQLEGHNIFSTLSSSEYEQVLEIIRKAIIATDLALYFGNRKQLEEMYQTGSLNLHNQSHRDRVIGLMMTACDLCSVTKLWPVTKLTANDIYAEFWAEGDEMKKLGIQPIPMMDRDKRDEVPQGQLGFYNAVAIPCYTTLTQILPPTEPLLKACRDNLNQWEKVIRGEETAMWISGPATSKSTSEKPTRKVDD

COc1ccc2c(c1)CCN(c1ncnn3c(C)nc([C@@H]4CCOC4)c13)C2 [Example 58, 6-methoxy-2-{7-methyl-5-[(3S)-tetrahydrofuran-3-yl]imidazo[5,1-f][1,2,4]triazin-4-yl}-1,2,3,4-tetrahydroisoquinoline]
IC50 (rat PDE10 enzyme): < 1.16 nM | IC50 [1]: 1.12 nM

COc1cc2c(cn1)CN(c1ncnn3c(C)nc([C@@H]4CCOC4)c13)CC2 [Example 70, 6-methoxy-2-{7-methyl-5-[(3S)-tetrahydrofuran-3-yl]imidazo[5,1-f][1,2,4]triazin-4-yl}-1,2,3,4-tetrahydro-2,7-naphthyridine]
IC50 (rat PDE10 enzyme): 1.52 nM | IC50 [1]: 1.95 nM

COc1cc2c(cn1)CN(c1ncnn3c(C)nc(-c4ccccc4F)c13)CC2 [Example 71, 2-[5-(2-fluorophenyl)-7-methylimidazo[5,1-f][1,2,4]triazin-4-yl]-6-methoxy-1,2,3,4-tetrahydro-2,7-naphthyridine]
IC50 (rat PDE10 enzyme): 3.41 nM | IC50 [1]: 5.77 nM

Cc1ccc2c(n1)CN(c1ncnn3c(C)nc([C@@H]4CCOC4)c13)CC2 [Example 72, 2-methyl-7-{7-methyl-5-[(3S)-tetrahydrofuran-3-yl]imidazo[5,1-f][1,2,4]triazin-4-yl}-5,6,7,8-tetrahydro-1,7-naphthyridine]
IC50 (rat PDE10 enzyme): 0.255 nM | IC50 [1]: 0.539 nM

Cc1nc([C@@H]2CCOC2)c2c(N3CCc4ccc(C5CC5)nc4C3)ncnn12 [Example 74, 2-cyclopropyl-7-{7-methyl-5-[(3S)-tetrahydrofuran-3-yl]imidazo[5,1-f][1,2,4]triazin-4-yl}-5,6,7,8-tetrahydro-1,7-naphthyridine]
IC50 (rat PDE10 enzyme): 0.0896 nM | IC50 [1]: 0.211 nM

Cc1nc(-c2ccccc2F)c2c(N3CCc4ccc(C5CC5)nc4C3)ncnn12 [Example 75, 2-cyclopropyl-7-[5-(2-fluorophenyl)-7-methylimidazo[5,1-f][1,2,4]triazin-4-yl]-5,6,7,8-tetrahydro-1,7-naphthyridine]
IC50 (rat PDE10 enzyme): 3.56 nM | IC50 [1]: 6.03 nM

Cc1nc([C@H]2CCOC2)c2c(N3CCc4c(c(C(C)C)nn4C)C3)ncnn12 [Example 85, 7-methyl-4-{1-methyl-3-(propan-2-yl)-1,4,6,7-tetrahydro-5H-pyrazolo[4,3-c]pyridin-5-yl]-5-[(3R)-tetrahydrofuran-3-yl]imidazo[5,1-f][1,2,4]triazine]
IC50 (rat PDE10 enzyme): 0.556 nM | IC50 [1]: 0.182 nM

Cc1nc([C@@H]2CCOC2)c2c(N3CCc4c(c(C(C)C)nn4C)C3)ncnn12 [Example 86, 7-methyl-4-[1-methyl-3-(propan-2-yl)-1,4,6,7-tetrahydro-5H-pyrazolo[4,3-c]pyridin-5-yl]-5-[(3S)-tetrahydrofuran-3-yl]imidazo[5,1-f][1,2,4]triazine]
IC50 (rat PDE10 enzyme): 0.132 nM | IC50 [1]: 0.0444 nM

Cc1nc2c(c(C(F)(F)F)n1)CN(c1ncnn3c(C)nc([C@@H]4CCOC4)c13)CC2 [Example 88, 2-methyl-6-{7-methyl-5-[(3S)-tetrahydrofuran-3-yl]imidazo[5,1-f][1,2,4]triazin-4-yl}-4-(trifluoromethyl)-5,6,7,8-tetrahydropyrido[4,3-d]pyrimidine]
IC50 (rat PDE10 enzyme): 1.56 nM | IC50 [1]: 3.64 nM

Cc1nc(-c2ccccc2F)c2c(N3CCc4nc(C5CC5)nc(C(F)(F)F)c4C3)ncnn12 [Example 90, 2-cyclopropyl-6-[5-(2-fluorophenyl)-7-methylimidazo[5,1-f][1,2,4]triazin-4-yl]-4-(trifluoromethyl)-5,6,7,8-tetrahydropyrido[4,3-d]pyrimidine]
IC50 (rat PDE10 enzyme): 3.09 nM | IC50 [1]: 4.55 nM

Cc1nc([C@@H]2CCOC2)c2c(N3CCc4cnn(C(C)C)c4C3)ncnn12 [Example 91]
IC50 (rat PDE10 enzyme): 0.793 nM | IC50 [1]: 0.61 nM

Cc1nc(-c2ccccc2F)c2c(N3CCc4cnn(C(C)C)c4C3)ncnn12 [Example 92, 5-(2-fluorophenyl)-7-methyl-4-[1-(propan-2-yl)-1,4,5,7-tetrahydro-6H-pyrazolo[3,4-c]pyridin-6-yl]imidazo[5,1-f][1,2,4]triazine]
IC50 (rat PDE10 enzyme): 0.997 nM | IC50 [1]: 0.664 nM

Cc1nc(C2CCOCC2)c2c(N3CCc4ncccc4C3)ncnn12 [Example 95, 6[7-methyl-5-(tetrahydro-2H-pyran-4-yl)imidazo[5,1-f][1,2,4]triazin-4-yl]-5,6,7,8-tetrahydro-1,6-naphthyridine]
IC50 (rat PDE10 enzyme): 10.1 nM | IC50 [1]: 8.82 nM

Cc1nc([C@H]2CCOC2)c2c(N3CCc4ncccc4C3)ncnn12 [Example 96, 6-{7-methyl-5-[(3R)-tetrahydrofuran-3-yl]imidazo[5,1-f][1,2,4]triazin-4-yl}-5,6,7,8-tetrahydro-1,6-naphthyridine]
IC50 (rat PDE10 enzyme): 5.2 nM | IC50 [1]: 4.8 nM

Cc1ncc2c(n1)CCN(c1ncnn3c(C)nc(-c4ccccc4F)c13)C2 [Example 111, 6-[5-(2-fluorophenyl)-7-methylimidazo[5,1-f][1,2,4]triazin-4-yl]-2-methyl-5,6,7,8-tetrahydropyrido[4,3-d]pyrimidine]
IC50 (rat PDE10 enzyme): 6.85 nM | IC50 [1]: 18.6 nM

Cc1nc(-c2ccccc2F)c2c(N3CCc4c(c(C(F)(F)F)nn4C)C3)ncnn12 [Example 118, 5-(2-fluorophenyl)-7-methyl-4-[1-methyl-3-(trifluoromethyl)-1,4,6,7-tetrahydro-5H-pyrazolo[4,3-c]pyridin-5-yl]imidazo[5,1-f][1,2,4]triazine]
IC50 (rat PDE10 enzyme): 0.943 nM | IC50 [1]: 1.28 nM

Cc1nc(C)c2c(n1)CCN(c1ncnn3c(C)nc(-c4ccccc4F)c13)C2 [Example 130, 6-[5-(2-fluorophenyl)-7-methylimidazo[5,1-f][1,2,4]triazin-4-yl]-2,4-dimethyl-5,6,7,8-tetrahydropyrido[4,3-d]pyrimidine]
IC50 (rat PDE10 enzyme): 1.65 nM | IC50 [1]: 2.34 nM

CCc1nc(C)nc2c1CN(c1ncnn3c(C)nc(-c4ccccc4F)c13)CC2 [Example 131, 4-ethyl-6-[5-(2-fluorophenyl)-7-methylimidazo[5,1-f][1,2,4]triazin-4-yl]-2-methyl-5,6,7,8-tetrahydropyrido[4,3-d]pyrimidine]
IC50 (rat PDE10 enzyme): 0.456 nM | IC50 [1]: 0.573 nM

CCc1nc(C)nc2c1CN(c1ncnn3c(C)nc([C@@H]4CCOC4)c13)CC2 [Example 133, 4-ethyl-2-methyl-6-{7-methyl-5-[(3S)-tetrahydrofuran-3-yl]imidazo[5,1-f][1,2,4]triazin-4-yl}-5,6,7,8-tetrahydropyrido[4,3-d]pyrimidine]
IC50 (rat PDE10 enzyme): 0.37 nM | IC50 [1]: 0.625 nM

Cc1ncc2c(n1)CCN(c1ncnn3c(C)nc([C@@H]4CCOC4)c13)C2 [Example 134, 2-methyl-6-{7-methyl-5-[(3S)-tetrahydrofuran-3-yl]imidazo[5,1-f][1,2,4]triazin-4-yl}-5,6,7,8-tetrahydropyrido[4,3-d]pyrimidine]
IC50 (rat PDE10 enzyme): 2.44 nM | IC50 [1]: 4.51 nM

CCc1nc(C2CC2)nc2c1CN(c1ncnn3c(C)nc([C@@H]4CCOC4)c13)CC2 [Example 137]
IC50 (rat PDE10 enzyme): 0.095 nM | IC50 [1]: 0.0777 nM

Cc1ccc2c(n1)CCN(c1ncnn3c(C)nc([C@@H]4CCOC4)c13)C2 [Example 139, 2-methyl-6-{7-methyl-5-[(3S)-tetrahydrofuran-3-yl]imidazo[5,1-f][1,2,4]triazin-4-yl}-5,6,7,8-tetrahydro-1,6-naphthyridine]
IC50 (rat PDE10 enzyme): 0.27 nM | IC50 [1]: 0.279 nM

Cc1nc([C@@H]2CCOC2)c2c(N3CCc4nc(C5CC5)n(C)c(=O)c4C3)ncnn12 [Example 143, 2-cyclopropyl-3-methyl-6-{7-methyl-5-[(3S)-tetrahydrofuran-3-yl]imidazo[5,1-f][1,2,4]triazin-4-yl}-5,6,7,8-tetrahydropyrido[4,3-d]pyrimidin-4(3H)-one]
IC50 (rat PDE10 enzyme): 0.106 nM | IC50 [1]: 0.219 nM

CCOc1nc(C2CC2)nc2c1CN(c1ncnn3c(C)nc([C@@H]4CCOC4)c13)CC2 [Example 148, 2-cyclopropyl-4-ethoxy-6-{7-methyl-5-[(3S)-tetrahydrofuran-3-yl]imidazo[5,1-f][1,2,4]triazin-4-yl}-5,6,7,8-tetrahydropyrido[4,3-d]pyrimidine]
IC50 (rat PDE10 enzyme): 0.125 nM | IC50 [1]: 0.166 nM

CNc1ccc2c(n1)CCN(c1ncnn3c(C)nc([C@@H]4CCOC4)c13)C2 [Example 152, N-methyl-6-{7-methyl-5-[(3S)-tetrahydrofuran-3-yl]imidazo[5,1-f][1,2,4]triazin-4-yl}-5,6,7,8-tetrahydro-1,6-naphthyridin-2-amine]
IC50 (rat PDE10 enzyme): < 0.13 nM | IC50 [1]: 0.333 nM
